Experimental data reported in US20220184008A1, “MODULATORS OF INTRACELLULAR CHLORIDE CONCENTRATION” (FONDAZIONE ISTITUTO ITALIANO DI TECNOLOGIA, priority 2019, published 2022).

Experiments:
[1] = tested on: NKCC1; test: Calcium kinetic assay in primary cultures of immature hippocampal neurons; format: cell-based; settings: for NKCC1 Inhibition % 10 μM Neurons Calcium kinetic assay: immature neurons 3 DIV; for fluorescence increase upon GABA application compared with vehicle (DMSO)-treated controls: GABA 100 μM, normalized to KCl
Experimental: FIG. 2: In vitro testing of the NKCC1 inhibitors in a calcium kinetic assay. a) Example traces of fluorescence levels upon application of GABA (100 μM) and KCl (90 mM) used to trigger calcium influx in primary neuronal cultures treated after 3 days in culture (3 DIV) with vehicle, bumetanide, furosemide and compounds 3.8, 3.13 and 3.17 in the calcium kinetic assay. b) Quantification of the average fluorescence increase upon GABA application normalized to the increase upon KCl application in neurons treated with bumetanide, furosemide and 3 exemplary compounds (3.8, 3.13, 3.17) (10 μM, 100 μM). Data represents mean±sem from 5 independent experiments, and they are presented as % of the control. *P<0.05, **P<0.01, ***P<0.001 Kruskal-Wallis Anova (Dunn's Post hoc Test).
Next, the compounds of the invention were tested for their ability to revert the depolarizing GABAergic signaling in immature neurons. This effect was indirectly measured as calcium influx into the cells with an in vitro calcium kinetic assay in primary cultures of hippocampal neurons. The calcium kinetic assay exploits the physiological, endogenous, high expression of NKCC1 in immature neurons, which causes depolarizing actions of GABA and can activate voltage-gated Ca^2+ channels. Thus, in immature neurons, a compound that blocks NKCC1 is predicted to inhibit Ca^2+ responses upon GABA application. Immature neurons were cultured for 3 days in vitro (3 DIV) and loaded for 15 min with a calcium-sensitive dye (Fluo4). Then, the neurons were treated with bumetanide and furosemide (as positive controls) or with each of the selected compounds for 15 min. As a functional readout, the fluorescence level was monitored in these cultures before and after application of GABA (100 μM, for 20 sec). To test for neuronal viability at the end of the experiment, KCl was applied (90 mM, for 40 sec), which strongly depolarizes neurons, causing high activation of voltage-gated Ca^2+ channels in live cells. To quantify how bumetanide, furosemide, and selected compounds influenced NKCC1 inhibition, the fluorescence values were normalized upon GABA application to the fluorescence levels upon KCl application in treated neurons.

[2] = target: T1, NKCC2 (Homo sapiens, UniProt Q13621); test: Thallium-based assay in NKCC2-transfected HEK293 cells; format: cell-based
T1 construct: expressed in transfected cells; host or cells: HEK293
T1 sequence (Q13621 1-1099): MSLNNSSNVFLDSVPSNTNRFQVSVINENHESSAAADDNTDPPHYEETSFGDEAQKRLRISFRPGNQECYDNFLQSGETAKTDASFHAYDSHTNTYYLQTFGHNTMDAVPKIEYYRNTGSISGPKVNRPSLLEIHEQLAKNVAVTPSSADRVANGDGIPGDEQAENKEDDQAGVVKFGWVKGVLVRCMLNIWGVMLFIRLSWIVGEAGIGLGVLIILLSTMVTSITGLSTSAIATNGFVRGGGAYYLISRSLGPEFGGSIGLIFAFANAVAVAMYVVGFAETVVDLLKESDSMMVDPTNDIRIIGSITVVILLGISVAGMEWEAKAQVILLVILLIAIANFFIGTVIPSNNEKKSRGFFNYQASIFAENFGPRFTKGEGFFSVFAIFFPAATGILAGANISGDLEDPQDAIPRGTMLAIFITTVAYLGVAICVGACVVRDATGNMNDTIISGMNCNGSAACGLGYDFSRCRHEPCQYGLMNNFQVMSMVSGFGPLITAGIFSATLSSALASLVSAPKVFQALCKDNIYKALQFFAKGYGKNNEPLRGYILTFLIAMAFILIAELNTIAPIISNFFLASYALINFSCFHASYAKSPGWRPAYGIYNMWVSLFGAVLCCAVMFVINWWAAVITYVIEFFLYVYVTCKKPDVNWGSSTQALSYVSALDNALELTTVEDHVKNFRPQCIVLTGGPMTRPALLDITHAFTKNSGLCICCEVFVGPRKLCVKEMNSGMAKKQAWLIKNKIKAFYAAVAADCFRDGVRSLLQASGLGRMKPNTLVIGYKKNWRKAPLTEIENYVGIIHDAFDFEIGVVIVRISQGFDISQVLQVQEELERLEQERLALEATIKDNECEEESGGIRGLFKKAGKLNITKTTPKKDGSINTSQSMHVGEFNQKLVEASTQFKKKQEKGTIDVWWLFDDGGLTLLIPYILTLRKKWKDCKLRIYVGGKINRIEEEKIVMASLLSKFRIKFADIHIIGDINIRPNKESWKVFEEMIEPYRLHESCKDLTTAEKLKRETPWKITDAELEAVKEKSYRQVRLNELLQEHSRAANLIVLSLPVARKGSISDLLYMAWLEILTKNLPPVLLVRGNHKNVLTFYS
Source text: The Thallium-based assay is a standard assay used to measure activity of potassium transporters, like NKCC2 which is a sodium potassium and chloride co-transporter. The assay consists on the monitoring of the cells upon the application of thallium (which mimic K^+) and consequently NaCl, which entering into cells by NKCC2, activated by the presence of the chloride ions, binds the fluorescent dye, thus determining a fluorescence increase. This assay involves parallel testing in 96 wells for a quick and easy drug screening. In detail, kidney epithelial cells (HEK293) were transfected with NKCC2 transporters, or a mock construct (control). After two days, the cells were loaded with a thallium-sensitive fluorescent dye in a Cl-free medium. After 1 hour of incubation, the inhibitory activity of bumetanide and furosemide (as positive controls) and the new compounds by monitoring fluorescence upon application of thallium (to mimic K) and subsequently NaCl were tested. When entering cells by NKCC2 (activated by the presence of Cl), thallium binds the fluorescent dye and increases fluorescence. […] A decreased fluorescence in the mock-transfected cells treated with bumetanide and furosemide was observed. […] This latter result was used to normalize the fluorescence measurements obtained with the assay. In particular, the ΔF/F0 value of the mock-transfected cells (both control and treated) was subtracted from the respective ΔF/F0 value of the cells transfected with the Cl transporters. With this assay, the novel chemical entities were tested for their ability to block NKCC2 (Results in Table 2).
The arrow indicates the addition of thallium (final concentration 2 mM) and NaCl stimulus (135 mM) used to initiate the flux assay. b) Quantification of the effect of bumetanide, furosemide and 3 example compounds (3.8, 3.13, 3.17) in the thallium-based assay on NKCC2-transfected HEK293 cells. Data represents mean±sem from 5 independent experiments, and they are represented as % of the controls. *P<0.05, **P<0.01, ***P<0.001 Kruskal-Wallis Anova (Dunn's Post hoc Test); ###P<0.001 two-tailed unpaired Student t-test.

[3] = 10 μM, NKCC2-transfected HEK293, Table 2

Q: With `CCCCCCNc1ccc([N+](=O)[O-])cc1S(N)(=O)=O` [Compound 1.7, 2-(hexylamino)-5-nitro-benzenesulfonamide] as the compound, how does the “NKCC1 Inhibition % 10 μM Neurons Calcium kinetic assay” value ([1]; Table 1) read?
A: 36%

Q: And the “NKCC1 Inhibition % 10 μM Neurons Calcium kinetic assay” value ([1]; Table 2)?
A: 36%

Q: And the inhibition at 10 µM [2, 3]?
A: 10%

Q: What does the source list for `CN(C)S(=O)(=O)c1cc(C(=O)O)ccc1NCCCCCCCC(F)(F)F` [Compound 3.17, 3-(dimethylsulfamoyl)-4-(8,8,8-trifluorooctylamino) benzoic acid]?
A: NKCC1 Inhibition % 10 μM Neurons Calcium kinetic assay ([1]; Table 1): 46%; NKCC1 Inhibition % 10 μM Neurons Calcium kinetic assay ([1]; Table 2): 46%; inhibition at 10 µM [2, 3]: 0%; NKCC1/NKCC2 selectivity ([2]; among compounds of the invention): highest

Q: Which “NKCC1 Inhibition % 10 μM Neurons Calcium kinetic assay” value ([1]; Table 1) does the source give for `CCCCCCNc1ccc(C(=O)O)cc1S(N)(=O)=O` [Compound 2.7, 4-(hexylamino)-3-sulfamoyl-benzoic acid] here?
A: 10%

Q: And the “NKCC1 Inhibition % 10 μM Neurons Calcium kinetic assay” value ([1]; Table 2)?
A: 10%

Q: And the inhibition at 10 µM [2, 3]?
A: 0%

Q: How did the inhibition at 10 µM [2, 3] turn out when `CCCCNc1ccc([N+](=O)[O-])cc1S(N)(=O)=O` [Compound 1.6, 2-(butylamino)-5-nitro-benzenesulfonamide] was run?
A: 4%

Q: Which results are given for `CCCCNc1cc(Cl)c(C(=O)O)cc1S(N)(=O)=O` [Compound 2.2, 4-(butylamino)-2-chloro-5-sulfamoyl-benzoic acid]?
A: NKCC1 Inhibition % 10 μM Neurons Calcium kinetic assay ([1]; Table 1): 2%; NKCC1 Inhibition % 10 μM Neurons Calcium kinetic assay ([1]; Table 2): 2%; inhibition at 10 µM [2, 3]: 0%

Q: Which results are given for `CCCCNc1cc(C(=O)O)cc(S(N)(=O)=O)c1Oc1ccccc1` [Bumetanide, reference compound]?
A: NKCC1 Inhibition % 10 μM Neurons Calcium kinetic assay ([1]; Table 1): 52%; NKCC1 Inhibition % 10 μM Neurons Calcium kinetic assay ([1]; Table 2): 52%; fluorescence increase upon GABA application compared with vehicle (DMSO)-treated controls [1]: significantly reduced; inhibition at 10 µM [2, 3]: 99%; ion flux and consequent increase in fluorescence in NKCC2-transfected cells ([2]; pre-incubation 10 μM): significantly reduced

Q: Which “NKCC1 Inhibition % 10 μM Neurons Calcium kinetic assay” value ([1]; Table 1) does the source give for `CC(C)(C)CCNc1ccc(C(=O)O)cc1S(N)(=O)=O` [Compound 2.9, 4-(3,3-dimethylbutylamino)-3-sulfamoyl-benzoic acid] here?
A: 25%

Q: What about the “NKCC1 Inhibition % 10 μM Neurons Calcium kinetic assay” value ([1]; Table 2) of the same compound?
A: 25%

Q: And the inhibition at 10 µM [2, 3]?
A: 23%

Q: For `CCCCCCCCNc1ccc(C(=O)O)cc1S(=O)(=O)NC` [Compound 3.8, 3-(methylsulfamoyl)-4-(octylamino)benzoic acid], which “NKCC1 Inhibition % 10 μM Neurons Calcium kinetic assay” value ([1]; Table 1) is on record?
A: 20%

Q: And the “NKCC1 Inhibition % 10 μM Neurons Calcium kinetic assay” value ([1]; Table 2)?
A: 20%

Q: And the inhibition at 10 µM [2, 3]?
A: 0%

Q: `CCCCCCCCNc1ccc(C(=O)O)cc1S(=O)(=O)N(C)C` [Compound 3.13, 3-(dimethylsulfamoyl)-4-(octylamino)benzoic acid] was tested. Which “NKCC1 Inhibition % 10 μM Neurons Calcium kinetic assay” value ([1]; Table 1) did it give?
A: 45%

Q: What about the “NKCC1 Inhibition % 10 μM Neurons Calcium kinetic assay” value ([1]; Table 2) of the same compound?
A: 45%

Q: What about the inhibition at 10 µM [2, 3] of the same compound?
A: 0%

Q: `CC(C)(C)CCNc1ccc([N+](=O)[O-])cc1S(N)(=O)=O` [Compound 1.9, 2-(3,3-dimethylbutylamino)-5-nitro-benzenesulfonamide] was tested. Which inhibition at 10 µM [2, 3] did it give?
A: 0%

Q: With `CCCCCCCCNc1ccc([N+](=O)[O-])cc1S(=O)(=O)N(C)C` [Compound 1.16, N,N-dimethyl-5-nitro-2-(octylamino)benzenesulfonamide] as the compound, how does the inhibition at 10 µM [2, 3] read?
A: 0%

Q: For `CCCCCCNc1cc(Cl)c(C(=O)O)cc1S(N)(=O)=O` [Compound 2.3, 2-chloro-4-(hexylamino)-5-sulfamoyl-benzoic acid], which inhibition at 10 µM [2, 3] is on record?
A: 14%

Q: Which results are given for `CCCCCCNc1ccc(C(=O)O)cc1S(=O)(=O)NC` [Compound 3.7, 4-(hexylamino)-3-(methylsulfamoyl)benzoic acid]?
A: NKCC1 Inhibition % 10 μM Neurons Calcium kinetic assay ([1]; Table 1): 7%; NKCC1 Inhibition % 10 μM Neurons Calcium kinetic assay ([1]; Table 2): 7%; inhibition at 10 µM [2, 3]: 8%

Q: `CCCCNc1ccc([N+](=O)[O-])cc1S(=O)(=O)NC` [Compound 1.10, 2-(butylamino)-N-methyl-5-nitro-benzenesulfonamide] was tested. Which inhibition at 10 µM [2, 3] did it give?
A: 0%

Q: Which “NKCC1 Inhibition % 10 μM Neurons Calcium kinetic assay” value ([1]; Table 1) does the source give for Furosemide [reference compound] here?
A: 36%

Q: What about the “NKCC1 Inhibition % 10 μM Neurons Calcium kinetic assay” value ([1]; Table 2) of the same compound?
A: 36%

Q: And the “fluorescence increase upon GABA application compared with vehicle (DMSO)-treated controls” value [1]?
A: significantly reduced

Q: What about the “NKCC2 Inhibition % 10 μM Thallium Assay” value [2, 3] of the same compound?
A: 0%

Q: For `CCCCNc1ccc([N+](=O)[O-])cc1S(=O)(=O)N(C)C` [Compound 1.14, 2-(butylamino)-N,N-dimethyl-5-nitro-benzenesulfonamide], which inhibition at 10 µM [2, 3] is on record?
A: 0%

Q: How did the inhibition at 10 µM [2, 3] turn out when `CCCCCCNc1ccc([N+](=O)[O-])cc1S(=O)(=O)NC` [Compound 1.11, 2-(hexylamino)-N-methyl-5-nitro-benzenesulfonamide] was run?
A: 0%

Q: `CNS(=O)(=O)c1cc([N+](=O)[O-])ccc1NCCC(C)(C)C` [Compound 1.13, 2-(3,3-dimethylbutylamino)-N-methyl-5-nitro-benzenesulfonamide] was tested. Which inhibition at 10 µM [2, 3] did it give?
A: 0%

Q: Which inhibition at 10 µM [2, 3] does the source give for `CCCCCCCCNc1ccc([N+](=O)[O-])cc1S(N)(=O)=O` [Compound 1.8, 5-nitro-2-(octylamino)benzenesulfonamide] here?
A: 10%

Q: How did the inhibition at 10 µM [2, 3] turn out when `CCCCCCCCNc1cc(Cl)c(C(=O)O)cc1S(N)(=O)=O` [Compound 2.4, 2-chloro-4-(octylamino)-5-sulfamoyl-benzoic acid] was run?
A: 16%

Q: How did the inhibition at 10 µM [2, 3] turn out when `CCCCCCNc1ccc([N+](=O)[O-])cc1S(=O)(=O)N(C)C` [Compound 1.15, 2-(hexylamino)-N,N-dimethyl-5-nitro-benzenesulfonamide] was run?
A: 0%

Q: For `CN(C)S(=O)(=O)c1cc([N+](=O)[O-])ccc1NCCC(C)(C)C` [Compound 1.17, 2-(3,3-dimethylbutylamino)-N,N-dimethyl-5-nitro-benzenesulfonamide], which inhibition at 10 µM [2, 3] is on record?
A: 13%

Q: `CCCCCCCCNc1ccc([N+](=O)[O-])cc1S(=O)(=O)NC` [Compound 1.12, N-methyl-5-nitro-2-(octylamino)benzenesulfonamide] was tested. Which inhibition at 10 µM [2, 3] did it give?
A: 0%

Q: `CC(C)(C)CCNc1cc(Cl)c(C(=O)O)cc1S(N)(=O)=O` [Compound 2.5, 2-chloro-4-(3,3-dimethylbutylamino)-5-sulfamoyl-benzoic acid] was tested. Which inhibition at 10 µM [2, 3] did it give?
A: 0%
